The target of this data set is T1, MDR1 (Homo sapiens, UniProt P08183).
T1 construct: made in house; host or cells: Sf9 insect cells (baculovirus)
The experiment in a line: MDR1-mediated NMQ vesicular transport (Sf9 membrane vesicles). The note with it: 0–50 μM; NMQ 5 μM. It is filed as biochemical. As to the method: Experiments were performed in insect membrane vesicles, as described previously. Briefly, human MDR1, BCRP, and MRP2 were expressed in Sf9 insect cells by baculoviruses. On the third day of infection, cells were collected and membrane vesicles were obtained by mechanical disruption and differential centrifugation. To get full activity for BCRP, the cholesterol levels of the vesicles were adjusted to the level of mammalian membranes. Vesicles were stored at −80 °C, and the total protein content of the preparations was measured by the Lowry method (used as a reference for the quantity). […] A 100 μL volume of fluorescence stabilizer was added to the samples (DMSO for LY, 0.1 M H2SO4 for NMQ, and 0.1 M NaOH for CDCF). Fluorescence of samples was measured by plate readers (Victor X3 and Enspire PerkinElmer; Waltham, MA) at appropriate wavelengths (filters in the Victor X3 reader were 405/535 nm for LY and 492/635 nm for CDCF; while in the Enspire reader, NMQ was measured at 360/430 nm excitation/emission wavelengths). ABC-related transport was calculated by subtracting passive uptake measured without Mg-ATP from values measured in the presence of Mg-ATP.

SMILES strings stand for the structures.

T1 sequence (P08183 whole entry): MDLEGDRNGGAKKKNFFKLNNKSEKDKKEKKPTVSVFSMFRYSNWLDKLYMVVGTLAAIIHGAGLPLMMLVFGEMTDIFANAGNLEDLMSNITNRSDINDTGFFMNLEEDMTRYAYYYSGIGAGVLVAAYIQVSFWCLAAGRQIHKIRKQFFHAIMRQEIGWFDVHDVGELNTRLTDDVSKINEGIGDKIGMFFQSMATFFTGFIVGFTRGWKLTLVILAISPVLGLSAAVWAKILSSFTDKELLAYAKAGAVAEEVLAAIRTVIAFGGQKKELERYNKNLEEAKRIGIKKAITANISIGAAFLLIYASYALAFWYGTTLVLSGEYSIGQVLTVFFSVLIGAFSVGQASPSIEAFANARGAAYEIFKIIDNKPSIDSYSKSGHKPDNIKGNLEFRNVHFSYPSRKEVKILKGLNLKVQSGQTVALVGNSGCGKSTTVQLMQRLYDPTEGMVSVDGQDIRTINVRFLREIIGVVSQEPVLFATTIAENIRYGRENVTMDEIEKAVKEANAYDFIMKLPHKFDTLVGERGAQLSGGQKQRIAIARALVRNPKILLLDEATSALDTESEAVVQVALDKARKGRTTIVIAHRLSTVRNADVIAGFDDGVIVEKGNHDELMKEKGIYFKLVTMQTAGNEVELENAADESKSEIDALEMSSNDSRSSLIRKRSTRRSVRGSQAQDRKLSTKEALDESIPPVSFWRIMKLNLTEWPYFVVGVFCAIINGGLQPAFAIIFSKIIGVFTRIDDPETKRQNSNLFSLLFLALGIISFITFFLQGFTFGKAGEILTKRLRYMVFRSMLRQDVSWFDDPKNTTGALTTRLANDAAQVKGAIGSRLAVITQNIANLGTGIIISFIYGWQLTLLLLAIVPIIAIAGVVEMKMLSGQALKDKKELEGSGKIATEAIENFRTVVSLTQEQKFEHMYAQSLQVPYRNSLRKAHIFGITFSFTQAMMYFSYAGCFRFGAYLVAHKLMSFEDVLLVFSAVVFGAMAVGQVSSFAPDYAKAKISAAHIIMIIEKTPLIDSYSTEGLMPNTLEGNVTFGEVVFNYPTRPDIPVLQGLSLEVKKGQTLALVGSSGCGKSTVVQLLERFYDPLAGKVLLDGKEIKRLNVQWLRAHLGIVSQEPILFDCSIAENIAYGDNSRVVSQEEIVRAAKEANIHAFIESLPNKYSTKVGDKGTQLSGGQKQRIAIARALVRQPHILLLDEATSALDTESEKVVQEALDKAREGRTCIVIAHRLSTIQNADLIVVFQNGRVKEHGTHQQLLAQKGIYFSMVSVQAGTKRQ

As to `C[C@H]1CCCC(=O)CCC/C=C/c2cc(O)cc(O)c2C(=O)O1` [ZEN, Zearalenone], the “effect on MDR1-driven NMQ transport” value is recorded as “inhibition only at 50 μM concentration”.

For the origin of these results see publication PMC12311865, “In Vitro Evaluation of the Potential Interactions of Zearalenone-14-sulfate and Zearalenone-14-glucuronide with Human Cytochrome P450 Enzymes, Organic Anion Transporting Polypeptides, and ATP-Binding Cassette Multidrug Transporters” (ACS Omega, 2025).
